Target: T1, Class 1 phosphodiesterase PDEB1 (Trypanosoma brucei) (UniProt Q8WQX9)
T1 sequence (whole entry): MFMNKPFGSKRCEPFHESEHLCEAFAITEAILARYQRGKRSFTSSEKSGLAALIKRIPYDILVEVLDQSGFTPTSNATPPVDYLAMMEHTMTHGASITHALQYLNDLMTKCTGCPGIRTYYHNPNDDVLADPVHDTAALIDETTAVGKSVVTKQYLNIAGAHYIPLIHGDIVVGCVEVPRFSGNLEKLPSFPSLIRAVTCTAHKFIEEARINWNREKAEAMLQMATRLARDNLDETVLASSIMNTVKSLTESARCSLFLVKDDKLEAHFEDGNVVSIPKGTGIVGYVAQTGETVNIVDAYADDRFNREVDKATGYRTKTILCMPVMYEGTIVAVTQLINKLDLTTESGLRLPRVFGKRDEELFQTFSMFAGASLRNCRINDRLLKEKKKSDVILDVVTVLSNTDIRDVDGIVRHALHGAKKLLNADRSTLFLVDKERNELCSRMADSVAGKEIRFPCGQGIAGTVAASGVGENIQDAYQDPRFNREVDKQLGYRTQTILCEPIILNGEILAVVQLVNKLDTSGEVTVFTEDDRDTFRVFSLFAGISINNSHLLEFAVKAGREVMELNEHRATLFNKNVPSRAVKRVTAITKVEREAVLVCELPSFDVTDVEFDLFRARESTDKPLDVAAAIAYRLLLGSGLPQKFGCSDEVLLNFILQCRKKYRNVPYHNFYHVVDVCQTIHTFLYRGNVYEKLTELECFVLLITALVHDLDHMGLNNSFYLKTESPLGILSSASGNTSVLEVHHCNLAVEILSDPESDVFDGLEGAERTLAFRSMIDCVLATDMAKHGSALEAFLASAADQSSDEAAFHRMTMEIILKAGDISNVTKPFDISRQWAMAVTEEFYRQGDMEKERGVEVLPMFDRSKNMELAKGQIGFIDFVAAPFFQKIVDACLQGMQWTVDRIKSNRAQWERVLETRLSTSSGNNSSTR
Assay: Inhibition of Trypanosoma brucei PDEB1 at 100 uM

Row | SMILES | inhibition [%]
1 | CCCc1nn(C)c2c(=O)[nH]c(-c3cnccn3)nc12 | 6.5
2 | CCCc1nn(C)c2c(=O)[nH]c(-c3cc(S(=O)(=O)N4CCN(C)CC4)ccc3OCC)nc12 | 51.5
3 | CCCc1nn(C)c2c(=O)[nH]c(-c3cccnc3OC(C)C)nc12 | 53.8
4 | CCCc1nn(C)c2c(=O)[nH]c(-c3oc(C)nc3C)nc12 | 29
5 | CCCc1nn(-c2cccnc2)c2c(=O)[nH]c(-c3cc(S(=O)(=O)N4CCN(C)CC4)ccc3OCC)nc12 | 32.4
6 | CCOc1ccc(S(=O)(=O)N2CCN(C)CC2)cc1-c1nc2c(-c3ccccc3)n[nH]c2c(=O)[nH]1 | 70.9
7 | CCCc1nn(C)c2c(=O)[nH]c(-c3ncccc3C)nc12 | 72.1
8 | CCCc1nn(C)c2c(=O)[nH]c(-c3cscn3)nc12 | 25.4
9 | CCOc1ccccc1-c1nc2c(-c3ccccc3)nn(CC(N)=O)c2c(=O)[nH]1 | 7
10 | CCCc1nn(C)c2c(=O)[nH]c(-c3ccccc3OCC)nc12 | 21.8
11 | CCCc1nn(C)c2c(=O)[nH]c(-c3cccnc3O)nc12 | 22.5

Other lines, results leading:

Row | inhibition [%] | SMILES
12 | 8.4 | CCCc1nn(C)c2c(=O)[nH]c(-c3cccc(S(=O)(=O)N4CCN(C)CC4)c3)nc12
13 | 3.2 | CCCc1nn(C)c2c(=O)[nH]c(-c3nnco3)nc12
14 | 16.3 | CCCc1nn(C)c2c(=O)[nH]c(-c3snnc3C)nc12
15 | 41.5 | CCCc1nn(C)c2c(=O)[nH]c(-c3cccnc3OCC)nc12
16 | 77.2 | CCCc1nn(C)c2c(=O)[nH]c(-c3cccnc3OC)nc12
17 | 16 | CCCc1n[nH]c2c(=O)[nH]c(-c3cc(S(=O)(=O)N4CCN(C)CC4)ccc3OCC)nc12
18 | 13.6 | CCOc1ccc(S(=O)(=O)N2CCN(C)CC2)cc1-c1nc2cnn(C)c2c(=O)[nH]1
19 | 30 | CCCc1nn(C)c2c(=O)[nH]c(-c3cnc(C)cn3)nc12
20 | 13.8 | CCCc1nn(C)c2c(=O)[nH]c(-c3ccoc3)nc12
21 | 11.1 | CCCc1nn(C)c2c(=O)[nH]c(-c3ccc(=O)[nH]n3)nc12
22 | 14.1 | CCCc1nn(C)c2c(=O)[nH]c(-c3nccnc3N)nc12
23 | 17.5 | CCOc1ccc(S(=O)(=O)N2CCN(C)CC2)cc1-c1nc2c(-c3ccccc3)nn(C)c2c(=O)[nH]1
24 | 24 | CCCc1nn(C)c2c(=O)[nH]c(-c3ccc(O)cc3)nc12
25 | 22.9 | CCOc1ccccc1-c1nc2c(-c3ccccc3)n[nH]c2c(=O)[nH]1
26 | 5.3 | CCCc1nn(C)c2c(=O)[nH]c(-c3cn(C)cn3)nc12
27 | 7.2 | CCCc1nn(C)c2c(=O)[nH]c(-c3cn(C)nc3C)nc12

Test system: not listed separately
Assay: Solubility of the compound in 10% DMSO
Type: physicochemical

Row | solubility | SMILES
28 | Insoluble | CCOc1ccc(S(=O)(=O)N2CCN(C)CC2)cc1-c1nc2c(C)nn(C)c2c(=O)[nH]1
29 | Insoluble | CCCc1nn(C)c2c(=O)[nH]c(-c3ccsc3)nc12
30 | Insoluble | CCOc1ccccc1-c1nc2c(-c3ccccc3)nn(-c3ccccc3)c2c(=O)[nH]1
31 | Insoluble | CCOc1ccccc1-c1nc2c(-c3ccccc3)nn(-c3cccnc3)c2c(=O)[nH]1
32 | Insoluble | CCCc1n[nH]c2c(O)nc(-c3ccccc3OCC)nc12
33 | Insoluble | CCCc1nn(C)c2c(=O)[nH]c(-c3ccnn3C)nc12
